According to article PMC7710018, “Restoration of motor learning in a mouse model of Rett syndrome following long-term treatment with a novel small-molecule activator of TrkB” (Disease Models & Mechanisms, 2020):
Read-outs that look alike come from different tables or passages of the source.

Assays:
Assay in all cases: Cerep ExpresSProfile radioligand binding
M2 (h) = molecular target: T1, M2 (h) (Homo sapiens, UniProt P08172); conditions: 10 micromolar; antagonist radioligand; read-out: % Inhibition of Control Specific Binding 1st
T1 construct: purchased Cerep (ExpresSProfile)
Description: (§1) To evaluate the relative binding specificity of LM22A-4 ([Massa et al., 2010]) and PTX-BD4-3, binding to a broad range of 55 pharmacologically relevant receptors, including numerous neurotransmitter and G-protein coupled receptors was assessed using standard radioligand competition binding assays (ExpressSProfile) performed by Cerep, Inc. (Seattle, WA, USA). In addition, ADME-Tox analysis was performed by Cerep, Inc. All experimental conditions are described on the Cerep website (www.cerep.fr). […]
(§2) Table S1. In vitro binding assays. An ExpresSProfile screen of PTX-BD4-3 binding to a panel of pharmacologically relevant receptors was conducted by Cerep, Inc.
(§3) (Eurofins Panlabs, MO). The results are expressed as percent inhibition of control specific binding obtained in the presence of 10 micromolar PTX-BD4-3. In this assay, values below 50% indicate no specific binding of PTX-BD4-3. The assay was negative for PTX-BD4-3 binding to all of the 55 receptors in the screen.
(§4) (also on this page, place not known: 2B 5‐HT 3 5‐HT 5a 5‐HT 6 5‐HT 7 (agonis t VPAC 1 V 1 Ca 2+ K V SK Ca Na + Cl ‐ 5‐HT Disease Models & Mechanisms: doi:10.1242/dmm.044685: Supplementary information Disease Models & Mechanisms • Supplementary information)

5-HT2B (h) = molecular target: T2, 5-HT2B (h) (Homo sapiens, UniProt P41595); conditions: 10 micromolar, agonist radioligand
T2 construct: Cerep, Inc. (contract screen)
Description: as §1, §2, §3, §4

M1 (h) = molecular target: T3, M1 (h) (Homo sapiens, UniProt P11229); conditions: 10 micromolar, antagonist radioligand
T3 construct: purchased Cerep (ExpresSProfile)
T3 sequence (P11229 1-460): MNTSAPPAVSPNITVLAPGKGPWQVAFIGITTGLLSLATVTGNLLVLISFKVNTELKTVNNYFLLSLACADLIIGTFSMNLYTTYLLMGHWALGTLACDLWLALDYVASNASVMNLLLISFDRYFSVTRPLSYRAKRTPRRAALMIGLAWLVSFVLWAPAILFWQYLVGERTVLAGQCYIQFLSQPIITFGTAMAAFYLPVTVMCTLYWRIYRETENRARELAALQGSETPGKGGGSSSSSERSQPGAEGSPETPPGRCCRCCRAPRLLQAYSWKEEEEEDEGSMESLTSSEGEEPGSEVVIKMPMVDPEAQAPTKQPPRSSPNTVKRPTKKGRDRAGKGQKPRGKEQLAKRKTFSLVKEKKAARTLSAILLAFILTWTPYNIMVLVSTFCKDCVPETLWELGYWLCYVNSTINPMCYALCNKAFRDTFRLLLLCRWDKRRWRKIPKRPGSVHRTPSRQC
Description: as §1, §2, §3, §4

δ2 (DOP) (h) = molecular target: T4, δ2 (DOP) (h) (Homo sapiens, UniProt P41143); conditions: 10 micromolar; agonist radioligand; read-out: % Inhibition of Control Specific Binding 2nd
T4 construct: purchased Cerep (ExpresSProfile)
Description: as §1, §2, §3, §4

NK3 (h) = molecular target: T5, NK3 (h) (Homo sapiens, UniProt P29371); conditions: 10 micromolar; antagonist radioligand; read-out: % Inhibition of Control Specific Binding 2nd
T5 construct: purchased Cerep (ExpresSProfile)
Description: as §1, §2, §3, §4

Na+ channel (site 2) = conditions: 10 micromolar; antagonist radioligand
Description: as §1, §2, §3, §4

NTS1 (NT1) (h) = molecular target: T6, NTS1 (NT1) (h) (Homo sapiens, UniProt P30989); conditions: 10 micromolar, agonist radioligand
T6 construct: purchased Cerep (ExpresSProfile)
Description: as §1, §2, §3, §4

α1 (non-selective) = conditions: 10 micromolar; antagonist radioligand
Description: as §1, §2, §3, §4

κ (KOP) = molecular target: T7, κ (KOP) (Rattus norvegicus, UniProt P34975); conditions: 10 micromolar; agonist radioligand; read-out: % Inhibition of Control Specific Binding 1st
T7 construct: purchased Cerep (ExpresSProfile)
Description: as §1, §2, §3, §4

KV channel = conditions: 10 micromolar; antagonist radioligand
Description: as §1, §2, §3, §4

[1] = molecular target: T8, norepinephrine transporter (h) (Homo sapiens, UniProt P23975); conditions: 10 micromolar, antagonist radioligand
T8 construct: Cerep, Inc. (contract screen)
Description: as §1, §2, §3, §4

5-HT7 (h) = molecular target: T9, 5-HT7 (h) (Homo sapiens, UniProt P34969); conditions: 10 micromolar, agonist radioligand
T9 construct: Cerep, Inc. (contract screen)
Description: as §1, §2, §3, §4

5-HT transporter (h) = molecular target: T10, 5-HT transporter (h) (Homo sapiens, UniProt P31645); conditions: 10 micromolar, antagonist radioligand
T10 construct: Cerep, Inc. (contract screen)
Description: as §1, §2, §3, §4

NOP (ORL1) (h) = molecular target: T11, NOP (ORL1) (h) (Homo sapiens, UniProt P41146); conditions: 10 micromolar, agonist radioligand
T11 construct: purchased Cerep (ExpresSProfile)
Description: as §1, §2, §3, §4

Cl- channel (GABA-gated) = conditions: 10 micromolar; antagonist radioligand
Description: as §1, §2, §3, §4

dopamine transporter (h) = molecular target: T12, dopamine transporter (h) (Homo sapiens, UniProt Q01959); conditions: 10 micromolar, antagonist radioligand
T12 construct: Cerep, Inc. (contract screen)
Description: as §1, §2, §3, §4

5-HT3 (h) = molecular target: T13, 5-HT3 (h) (Homo sapiens, UniProt P46098); conditions: 10 micromolar, antagonist radioligand
T13 construct: Cerep, Inc. (contract screen)
T13 sequence (P46098 24-478): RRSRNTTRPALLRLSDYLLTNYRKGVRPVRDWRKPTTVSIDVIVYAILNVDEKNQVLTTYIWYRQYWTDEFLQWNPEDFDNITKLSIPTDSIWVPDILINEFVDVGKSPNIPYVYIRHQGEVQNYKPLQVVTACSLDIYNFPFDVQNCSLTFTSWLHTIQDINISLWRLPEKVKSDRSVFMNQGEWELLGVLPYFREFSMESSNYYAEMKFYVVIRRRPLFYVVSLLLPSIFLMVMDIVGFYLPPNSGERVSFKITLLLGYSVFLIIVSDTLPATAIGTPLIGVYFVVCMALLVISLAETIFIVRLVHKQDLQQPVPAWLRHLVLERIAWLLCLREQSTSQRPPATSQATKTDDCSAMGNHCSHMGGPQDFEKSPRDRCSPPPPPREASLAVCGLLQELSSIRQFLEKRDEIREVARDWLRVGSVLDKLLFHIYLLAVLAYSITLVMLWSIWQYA
Description: as §1, §2, §3, §4

α2 (non-selective) = conditions: 10 micromolar; antagonist radioligand
Description: as §1, §2, §3, §4

[2] = read-out: % Inhibition of Control Specific Binding 1st
[3] = read-out: % Inhibition of Control Specific Binding Mean
[4] = read-out: % Inhibition of Control Specific Binding 2nd

T9 sequence (P34969 whole entry): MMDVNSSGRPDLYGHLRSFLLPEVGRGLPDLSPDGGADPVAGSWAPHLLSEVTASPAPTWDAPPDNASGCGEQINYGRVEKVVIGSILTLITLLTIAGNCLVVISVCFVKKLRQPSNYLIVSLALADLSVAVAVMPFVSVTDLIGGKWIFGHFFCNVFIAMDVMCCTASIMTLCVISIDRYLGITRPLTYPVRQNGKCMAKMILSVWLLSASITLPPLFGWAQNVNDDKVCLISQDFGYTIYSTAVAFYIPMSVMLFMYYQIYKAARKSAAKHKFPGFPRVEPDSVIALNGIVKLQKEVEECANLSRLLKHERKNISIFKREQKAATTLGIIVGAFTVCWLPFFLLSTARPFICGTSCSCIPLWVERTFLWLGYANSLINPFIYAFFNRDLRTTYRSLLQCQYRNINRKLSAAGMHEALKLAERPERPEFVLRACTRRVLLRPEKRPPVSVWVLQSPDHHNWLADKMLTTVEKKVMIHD
T6 sequence (P30989 whole entry): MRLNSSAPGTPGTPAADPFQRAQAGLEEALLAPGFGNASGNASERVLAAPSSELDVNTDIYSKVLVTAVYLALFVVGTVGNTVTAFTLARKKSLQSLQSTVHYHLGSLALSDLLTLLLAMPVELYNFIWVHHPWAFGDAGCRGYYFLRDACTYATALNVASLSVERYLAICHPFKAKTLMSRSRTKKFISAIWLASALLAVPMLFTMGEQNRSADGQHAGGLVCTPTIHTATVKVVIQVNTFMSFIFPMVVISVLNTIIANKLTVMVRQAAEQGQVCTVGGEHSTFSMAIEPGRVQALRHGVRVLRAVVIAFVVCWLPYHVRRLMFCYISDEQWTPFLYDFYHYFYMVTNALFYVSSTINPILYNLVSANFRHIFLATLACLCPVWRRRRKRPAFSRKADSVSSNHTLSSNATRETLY
T12 sequence (Q01959 whole entry): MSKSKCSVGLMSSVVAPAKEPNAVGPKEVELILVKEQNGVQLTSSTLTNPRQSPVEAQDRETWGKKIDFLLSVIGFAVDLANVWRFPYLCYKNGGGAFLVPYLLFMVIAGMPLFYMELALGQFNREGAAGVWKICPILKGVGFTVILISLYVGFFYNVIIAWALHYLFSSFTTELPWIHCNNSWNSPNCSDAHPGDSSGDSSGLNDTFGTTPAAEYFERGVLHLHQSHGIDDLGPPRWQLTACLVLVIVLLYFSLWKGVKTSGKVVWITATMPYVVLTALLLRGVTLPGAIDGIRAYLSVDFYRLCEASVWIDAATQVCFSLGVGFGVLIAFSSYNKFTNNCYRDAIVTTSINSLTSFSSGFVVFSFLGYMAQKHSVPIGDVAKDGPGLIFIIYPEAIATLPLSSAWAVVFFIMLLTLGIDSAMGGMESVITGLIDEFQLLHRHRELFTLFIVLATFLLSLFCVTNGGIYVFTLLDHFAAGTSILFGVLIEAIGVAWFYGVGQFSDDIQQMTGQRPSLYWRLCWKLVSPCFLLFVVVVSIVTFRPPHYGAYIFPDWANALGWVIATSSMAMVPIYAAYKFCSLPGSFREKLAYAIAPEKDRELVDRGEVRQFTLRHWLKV
T10 sequence (P31645 whole entry): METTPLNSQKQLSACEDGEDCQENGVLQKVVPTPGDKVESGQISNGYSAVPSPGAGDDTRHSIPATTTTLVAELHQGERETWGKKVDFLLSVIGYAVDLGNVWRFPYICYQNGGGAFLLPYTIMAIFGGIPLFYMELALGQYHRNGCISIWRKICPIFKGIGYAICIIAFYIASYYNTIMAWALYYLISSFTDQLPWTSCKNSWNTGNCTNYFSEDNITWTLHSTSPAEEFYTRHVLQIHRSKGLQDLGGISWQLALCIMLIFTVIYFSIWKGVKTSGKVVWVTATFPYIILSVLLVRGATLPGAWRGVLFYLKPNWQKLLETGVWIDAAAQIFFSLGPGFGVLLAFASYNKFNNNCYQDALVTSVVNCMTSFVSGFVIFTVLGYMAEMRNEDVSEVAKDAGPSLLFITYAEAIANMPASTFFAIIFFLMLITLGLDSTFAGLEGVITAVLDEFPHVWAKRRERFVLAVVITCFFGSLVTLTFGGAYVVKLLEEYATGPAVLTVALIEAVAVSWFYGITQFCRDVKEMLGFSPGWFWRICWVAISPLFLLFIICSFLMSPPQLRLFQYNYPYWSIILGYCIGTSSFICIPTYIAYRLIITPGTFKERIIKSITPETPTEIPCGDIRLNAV
T8 sequence (P23975 whole entry): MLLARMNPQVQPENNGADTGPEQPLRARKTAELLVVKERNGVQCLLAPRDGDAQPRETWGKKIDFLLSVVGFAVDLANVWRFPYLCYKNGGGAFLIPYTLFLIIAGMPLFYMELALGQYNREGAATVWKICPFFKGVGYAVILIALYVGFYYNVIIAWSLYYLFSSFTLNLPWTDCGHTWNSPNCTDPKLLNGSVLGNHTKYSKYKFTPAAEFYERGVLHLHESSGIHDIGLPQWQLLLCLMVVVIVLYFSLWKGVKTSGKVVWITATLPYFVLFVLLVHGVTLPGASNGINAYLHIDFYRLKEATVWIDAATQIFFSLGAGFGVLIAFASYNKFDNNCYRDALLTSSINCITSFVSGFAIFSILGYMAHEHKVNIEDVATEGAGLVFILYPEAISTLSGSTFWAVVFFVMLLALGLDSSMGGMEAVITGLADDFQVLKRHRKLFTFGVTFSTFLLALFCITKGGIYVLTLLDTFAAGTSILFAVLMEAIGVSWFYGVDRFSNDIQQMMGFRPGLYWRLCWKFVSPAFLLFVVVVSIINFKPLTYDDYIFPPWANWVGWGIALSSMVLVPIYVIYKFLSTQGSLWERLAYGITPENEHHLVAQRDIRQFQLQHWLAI
T2 sequence (P41595 whole entry): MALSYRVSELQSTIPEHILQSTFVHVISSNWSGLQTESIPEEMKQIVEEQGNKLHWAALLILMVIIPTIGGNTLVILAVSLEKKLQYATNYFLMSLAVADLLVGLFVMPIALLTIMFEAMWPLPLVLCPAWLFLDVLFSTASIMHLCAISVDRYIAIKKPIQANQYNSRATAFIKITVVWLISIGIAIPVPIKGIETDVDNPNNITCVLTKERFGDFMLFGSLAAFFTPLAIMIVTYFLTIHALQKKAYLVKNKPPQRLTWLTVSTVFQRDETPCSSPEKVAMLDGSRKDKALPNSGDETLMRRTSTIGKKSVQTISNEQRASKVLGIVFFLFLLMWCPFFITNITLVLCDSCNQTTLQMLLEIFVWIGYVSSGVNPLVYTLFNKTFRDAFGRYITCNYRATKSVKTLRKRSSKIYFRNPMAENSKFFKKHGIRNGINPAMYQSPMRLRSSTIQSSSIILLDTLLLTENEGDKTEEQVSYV
T11 sequence (P41146 whole entry): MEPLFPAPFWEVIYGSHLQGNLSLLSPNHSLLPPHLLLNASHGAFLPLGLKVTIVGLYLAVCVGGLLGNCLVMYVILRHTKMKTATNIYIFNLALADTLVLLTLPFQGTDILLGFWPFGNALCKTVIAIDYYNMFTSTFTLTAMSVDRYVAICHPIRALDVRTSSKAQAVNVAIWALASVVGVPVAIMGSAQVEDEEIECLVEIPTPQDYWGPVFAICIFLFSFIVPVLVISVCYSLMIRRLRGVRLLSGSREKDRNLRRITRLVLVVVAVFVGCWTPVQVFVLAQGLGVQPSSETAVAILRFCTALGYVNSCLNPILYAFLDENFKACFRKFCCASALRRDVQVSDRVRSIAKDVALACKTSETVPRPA
T1 sequence (P08172 whole entry): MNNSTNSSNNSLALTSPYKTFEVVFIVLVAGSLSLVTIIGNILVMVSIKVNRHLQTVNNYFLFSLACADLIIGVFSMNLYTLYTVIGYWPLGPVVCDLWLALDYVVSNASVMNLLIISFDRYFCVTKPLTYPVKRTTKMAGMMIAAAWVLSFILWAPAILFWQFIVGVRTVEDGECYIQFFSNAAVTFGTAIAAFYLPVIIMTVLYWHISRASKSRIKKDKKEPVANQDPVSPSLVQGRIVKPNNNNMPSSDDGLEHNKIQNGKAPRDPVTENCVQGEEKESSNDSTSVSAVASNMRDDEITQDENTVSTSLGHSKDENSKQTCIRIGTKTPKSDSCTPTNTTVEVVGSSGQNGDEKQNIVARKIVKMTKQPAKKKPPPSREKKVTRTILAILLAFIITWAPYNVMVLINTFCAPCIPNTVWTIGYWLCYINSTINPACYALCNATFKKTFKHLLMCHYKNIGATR
T5 sequence (P29371 whole entry): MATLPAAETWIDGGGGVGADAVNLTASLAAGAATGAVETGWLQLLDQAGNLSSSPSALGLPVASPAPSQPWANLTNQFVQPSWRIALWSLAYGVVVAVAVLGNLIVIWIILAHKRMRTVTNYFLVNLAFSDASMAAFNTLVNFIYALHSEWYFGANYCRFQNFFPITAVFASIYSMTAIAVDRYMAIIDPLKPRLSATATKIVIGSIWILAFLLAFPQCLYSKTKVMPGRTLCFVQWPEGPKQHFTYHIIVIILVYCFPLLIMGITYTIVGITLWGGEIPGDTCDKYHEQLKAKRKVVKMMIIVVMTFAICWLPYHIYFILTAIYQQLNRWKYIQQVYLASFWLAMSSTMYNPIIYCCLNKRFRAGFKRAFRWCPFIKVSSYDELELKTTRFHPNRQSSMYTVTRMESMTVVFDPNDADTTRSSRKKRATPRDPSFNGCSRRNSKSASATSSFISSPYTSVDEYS
T4 sequence (P41143 whole entry): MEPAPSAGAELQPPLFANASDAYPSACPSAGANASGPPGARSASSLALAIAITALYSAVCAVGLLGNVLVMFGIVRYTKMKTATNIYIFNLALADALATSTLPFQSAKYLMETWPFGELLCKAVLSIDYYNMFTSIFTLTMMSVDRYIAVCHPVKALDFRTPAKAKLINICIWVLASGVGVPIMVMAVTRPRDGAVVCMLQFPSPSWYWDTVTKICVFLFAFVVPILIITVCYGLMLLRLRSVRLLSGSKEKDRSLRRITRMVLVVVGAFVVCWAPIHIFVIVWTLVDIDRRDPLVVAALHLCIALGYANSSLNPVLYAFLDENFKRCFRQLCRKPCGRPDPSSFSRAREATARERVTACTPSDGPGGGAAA

Structure (SMILES): COCCN(C)C(=O)c1cc(C(=O)N(C)CCOC)cc(C(=O)N(C)CCOC)c1 [PTX-BD4-3, benzene-1,3,5-tricarboxylic acid tris-[(2-methoxy-ethyl)-methyl-amide]]
- inhibition at 10 µM (M2 (h)): 6.3%
- inhibition at 10 µM (5-HT2B (h); [2]): 12.6%
- inhibition at 10 µM (5-HT2B (h); [3]): 3.5%
- inhibition at 10 µM (M1 (h); [2]): 5%
- inhibition at 10 µM (M1 (h); [4]): 15%
- inhibition at 10 µM (M1 (h); [3]): 10%
- inhibition at 10 µM (δ2 (DOP) (h)): 1.9%
- inhibition at 10 µM (NK3 (h)): 0.4%
- % Inhibition of Control Specific Binding 1st (Na+ channel (site 2)): 0.6%
- % Inhibition of Control Specific Binding 2nd (Na+ channel (site 2)): 11.7%
- % Inhibition of Control Specific Binding Mean (Na+ channel (site 2)): 6.1%
- inhibition at 10 µM (NTS1 (NT1) (h); [2]): 11.2%
- inhibition at 10 µM (NTS1 (NT1) (h); [4]): 2.6%
- inhibition at 10 µM (NTS1 (NT1) (h); [3]): 6.9%
- % Inhibition of Control Specific Binding 1st (α1 (non-selective)): 0.9%
- inhibition at 10 µM (κ (KOP)): 0.9%
- % Inhibition of Control Specific Binding 1st (KV channel): 6.4%
- inhibition at 10 µM [1, 2]: 5.1%
- inhibition at 10 µM [1, 4]: 1.1%
- inhibition at 10 µM [1, 3]: 3.1%
- inhibition at 10 µM (5-HT7 (h); [2]): 8.1%
- inhibition at 10 µM (5-HT7 (h); [4]): 14.7%
- inhibition at 10 µM (5-HT7 (h); [3]): 11.4%
- inhibition at 10 µM (5-HT transporter (h); [2]): 16.3%
- inhibition at 10 µM (5-HT transporter (h); [4]): 5.5%
- inhibition at 10 µM (5-HT transporter (h); [3]): 10.9%
- inhibition at 10 µM (NOP (ORL1) (h); [4]): 6.3%
- inhibition at 10 µM (NOP (ORL1) (h); [3]): 0.1%
- % Inhibition of Control Specific Binding 1st (Cl- channel (GABA-gated)): 2.7%
- inhibition at 10 µM (dopamine transporter (h); [2]): 2.2%
- inhibition at 10 µM (dopamine transporter (h); [4]): 0.9%
- inhibition at 10 µM (dopamine transporter (h); [3]): 1.6%
- inhibition at 10 µM (5-HT3 (h); [2]): 6.9%
- inhibition at 10 µM (5-HT3 (h); [4]): 13.4%
- inhibition at 10 µM (5-HT3 (h); [3]): 10.1%
- % Inhibition of Control Specific Binding 1st (α2 (non-selective)): 1.8%
- % Inhibition of Control Specific Binding 2nd (α2 (non-selective)): 4.7%
- % Inhibition of Control Specific Binding Mean (α2 (non-selective)): 3.2%
